# Experimental data taken from US20040092588A1, “Antiseptic for wounds and mucous membranes” (priority 2001, published 2004).
# Test system: human amnion cells (FL cells)
# Assay: neutral red uptake cytotoxicity test
# Format: cell-based
# Conditions: 24 h at 37° C.
# Procedure: In this test, adherent cultures of human amnion cells (FL cells) are incubated for 24 h at 37° C. with the desired concentration of the test substance in complete MEM culture medium with 5% FBS in a 5% CO2/air atmosphere. The culture medium and test substance are then removed, and new culture medium with neutral red is added. Since vital FL cells take up the dye neutral red in their lysosomes, the intensity of the eluted red coloration is correlated with the proportion of living cells. The intensity is automatically determined by the absorbance at a 540 nm test wavelength/655 nm reference wavelength. Information about the cytotoxic activity of the test substance can be obtained by comparison with a control group that was incubated with phosphate-buffered salt solution (PBS) instead of with the test substance. In addition, this model can be used to test and compare different formulations.
# In the present test, different concentrations of octenidine dihydrochloride in PBS and Octenisept® (containing octenidine dihydrochloride and phenoxyethanol) were compared with each other and with PBS. The concentration values refer to the concentration of octenidine dihydrochloride.
# The measured absorbances are plotted in FIGS. 1-2. Each measurement is based on 32 individual measurements. Inferential statistical analysis was performed by the U-test. […]
compound,measurement,setting,value
CCCCCCCCN=c1ccn(CCCCCCCCCCn2ccc(=NCCCCCCCC)cc2)cc1.Cl.Cl [octenidine dihydrochloride],cytotoxic activity relative to comparable concentrations in Octenisept,,significantly lower
same,"absorbance (neutral red, 540 nm/655 nm) relative to Octenisept","all tested concentrations, U-test",significantly elevated
